Reference: patent US8673957B2, “Fluorescent probe” (Tetsuo Nagano, priority 2003, dated 2014)

Legend:
[1] = Reaction with nitrogen monoxide (NOC 13 as nitrogen monoxide generating agent), excitation/fluorescence spectra and HPLC; settings: 1 hour, 0.1 M sodium phosphate buffer (pH 7.4)
Method: NOC 13, which is a nitrogen monoxide generating agent, was added to Compound (7), and changes of excitation and fluorescence emission spectra were measured. The compound (7) at 5 μM (cosolvent: 0.1% DMSO) and NOC 13 were incubated at 37° C. for 1 hour in 0.1 M sodium phosphate buffer (pH 7.4), and then excitation and fluorescence spectra were measured. The measurement was performed with slit widths of Ex/Em=2.5/2.5 nm, excitation wavelength of 520 nm, and emission wavelength of 535 nm.

[2] = Effect of pH on the fluorescence intensity; type: physicochemical; settings: 0.1 M sodium phosphate buffer, 0.1% DMSO, pH range of from 3 to 13
Method: Compounds (7) and (8) were dissolved in 0.1 M sodium phosphate buffer (cosolvents 0.1% DMSO) adjusted to various pH values, and fluorescence was measured in the same manner as those in the aforementioned (b). […] Therefore, according to the measurement of nitrogen monoxide by using the compound of the present invention, extremely high accuracy of the measurement is achieved for a biosample with pH fluctuation.

[3] = Fluorescence spectrum: fluorescence characteristics and quantum yield; type: physicochemical; settings: 0.1 M sodium phosphate buffer (pH 7.4), 20° C.
Method: The fluorescence characteristics of Compound (7) and Compound (8) were measured. The quantum yield was measured by using F-4500 (Hitachi), and the other spectra were measured by using LS50B (Perkin Elmer). The measurement was performed at 20° C. for a solution of a sample dissolved in 0.1 M sodium phosphate buffer (pH 7.4) using dimethyl sulfoxide of less than 0.2% as a cosolvent. The quantum yield was calculated relative to that of fluorescein, which was 0.85 in aqueous 0.1 M NaOH. When similar quantum yield measurements were performed for a compound of the formula (I) wherein R^6 and R^9 were hydrogen atoms (p-DAMBO) and a compound of the formula (II) wherein R^16 and R^19 were hydrogen atoms (p-DAMBO-T) as controls, the quantum yields were 0.001 and 0.40, respectively.

[4] = DMSO less than 0.2% as cosolvent

SMILES | rate of reaction with nitrogen monoxide (HPLC of product) ([1]; compound at 5 μM with NOC 13, 37° C.) | change of fluorescence after addition of NOC 13 ([1]; compound at 5 μM, NOC 13 0-5.0 μM, 37° C., Ex 520 nm / Em 535 nm) | change in fluorescence intensity with pH [2] | Emission maximum [3, 4] [nm] | Extinction coefficient [3, 4] [M⁻¹ cm⁻¹] | Extinction maximum [3, 4] [nm] | Relative quantum yield ([3]; relative to fluorescein (0.85 in aqueous 0.1 M NaOH))
CC1=C(CCC(=O)O)C(C)=[N+]2C1=C(c1ccc(N)c(N)c1)c1c(C)c(CCC(=O)O)c(C)n1[B-]2(F)F [Compound (7), 8-(3,4-Diaminophenyl)-2,6-bis(2-carboxyethyl)-4,4-difluoro-1,3,5,7-tetramethyl-4-bora-3a,4a-diaza-s-indacene] | extremely rapid reaction | Increase of fluorescence depending on the concentration of added NOC 13 |  |  |  |  | 
CC1=C(CCC(=O)O)C(C)=[N+]2C1=C(c1ccc3[nH]nnc3c1)c1c(C)c(CCC(=O)O)c(C)n1[B-]2(F)F [Compound (8), 8-(5-Benzotriazolyl)-2,6-bis(2-carboxyethyl)-4,4-difluoro-1,3,5,7-tetramethyl-4-bora-3a,4a-diaza-s-indacene] |  |  | Almost no change in the fluorescence intensity | 537 | 56000 | 521 | 0.74
